Results from patent US6019997A, “Hydroalcoholic compositions for transdermal penetration of pharmaceutical agents” (priority 1997, dated 2000).

Key:
Format in all cases: physicochemical
[1] = Melt temperature (Tm); conditions: result in words
Method: The melt temperature was measured by placing approximately 15 grams sample in a 25 cc sealed glass vial and placing the vial in a water bath. The temperature of the bath was increased periodically in discrete increments and the contents checked after approximately 1 hour at a given temperature. The melt temperature was taken as the temperature at which the mixture became very low in viscosity.

[2] = Emulsion stability; conditions: concentrations below about 1% by weight
[3] = Viscosity (Brookfield LVDV-I+ viscometer, 23° C.); conditions: result in words
Method: In the following Examples (except where indicated) viscosity was measured at 23° C. at ambient pressure using a Brookfield LVDV-I^+ viscometer equipped with a model D Brookfield heliopath and T spindles B-F. The spindle and speed was chosen for each particular sample such that the viscometer was operating in the middle of its range. All samples were allowed to equilibrate at 23° C. for 24 hours prior to measurement. Preferably the viscosity is taken at the lowest speed possible while staying within 20-80% of the viscometer range and more preferably between 30-70% of the range. In all cases the sample size and container geometry was chosen to ensure that there were no wall effects. By "wall effects" it is meant the viscosity value is not affected by the container and is essentially equivalent to the viscosity taken in an infinitely large container. For this reason lower viscosity samples required a larger sample size to accommodate the larger spindles. The following table outlines preferred spindles for various sample viscosities.
The viscosity of each sample was taken as the highest relatively stable reading achieved on the first path the spindle traversed using the heliopath adapter.

Compound	effect of emollient on melt temperature of the composition [1]	phase separation when heated above the melt temperature [2]	effect of emollient on viscoelasticity of certain emulsifier systems [3]
trioctyldodecyl citrate	significantly decrease the melt temperature of some systems	–	–
CCCCCCCCCCCCOCCOCCOCCOCCO [laureth-4]	tends to decrease the melt temperature of the composition	does not phase out	–
CCCCCCCCCCCCCCCC [hexadecane]	–	–	can increase the viscoelasticity of certain emulsifier systems
